Melting point data for one compound are collected here from patent publication US7312179B2, “Cyclopropyl-thienyl-carboxamide as fungicides” (Syngenta Crop Protection, Inc., priority 2002, dated 2007).

Compound `Cn1cc(C(=O)Nc2ccsc2C2CC2C2CC2)c(C(F)F)n1` (stereo not shown) [Compound 4.34, 3-difluoromethyl-1-methyl-1H-pyrazole-4-carboxylic acid (2-bicyclo-propyl-2-yl-thiophen-3-yl)amide] came in with a melting point of 76 to 79 °C.
